{"source": "paper PMC12667995", "about": "(bioRxiv, 2025)", "key": {"[1]": {"molecular_target": "T1, ProT3 (Arabidopsis thaliana, UniProt Q9SJP9)", "T1 sequence (Q9SJP9 1-436)": "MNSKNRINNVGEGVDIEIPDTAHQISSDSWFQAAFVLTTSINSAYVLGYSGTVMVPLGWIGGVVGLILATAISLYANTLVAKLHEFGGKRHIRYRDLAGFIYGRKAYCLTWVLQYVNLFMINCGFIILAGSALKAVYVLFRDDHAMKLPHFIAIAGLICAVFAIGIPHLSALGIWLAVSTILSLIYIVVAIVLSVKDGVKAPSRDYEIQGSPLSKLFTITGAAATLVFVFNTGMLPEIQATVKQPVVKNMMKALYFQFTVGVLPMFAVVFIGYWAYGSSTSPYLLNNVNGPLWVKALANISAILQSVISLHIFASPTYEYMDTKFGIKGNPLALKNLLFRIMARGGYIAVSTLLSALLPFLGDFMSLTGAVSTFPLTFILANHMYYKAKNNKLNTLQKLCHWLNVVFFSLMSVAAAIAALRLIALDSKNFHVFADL", "assay": "3H-proline uptake and two-electrode voltage clamp, Xenopus laevis oocytes", "type": "cell-based", "conditions": "uptake: 0.5 uM 3H-L-proline, labelled compound, pH 5.0, 30 min; currents: 5 mM L-proline, pH 5.0, -60 mV"}, "[2]": {"molecular_target": "T2, ProT2 (Arabidopsis thaliana, UniProt P92962)", "T2 sequence (P92962 1-439)": "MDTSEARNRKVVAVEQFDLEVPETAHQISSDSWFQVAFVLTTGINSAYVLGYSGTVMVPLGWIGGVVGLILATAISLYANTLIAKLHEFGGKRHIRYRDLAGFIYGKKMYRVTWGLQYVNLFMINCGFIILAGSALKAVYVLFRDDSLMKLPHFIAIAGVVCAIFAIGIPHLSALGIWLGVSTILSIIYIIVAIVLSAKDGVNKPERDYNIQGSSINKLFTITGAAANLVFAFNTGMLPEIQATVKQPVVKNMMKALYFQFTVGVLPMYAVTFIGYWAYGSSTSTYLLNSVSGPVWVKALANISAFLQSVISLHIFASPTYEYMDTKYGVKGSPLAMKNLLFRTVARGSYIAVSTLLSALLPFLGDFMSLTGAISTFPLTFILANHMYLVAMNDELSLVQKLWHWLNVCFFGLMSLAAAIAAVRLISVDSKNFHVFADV", "assay": "3H-proline uptake and two-electrode voltage clamp, Xenopus laevis oocytes", "type": "cell-based", "conditions": "uptake: 0.5 uM 3H-L-proline, labelled compound, pH 5.0, 30 min; currents: 5 mM L-proline, pH 5.0, -60 mV"}}, "data": [{"smiles": "O=C(O)[C@@H]1CCCN1", "note": "[L-proline]", "values": [{"measurement": "3H-proline uptake and two-electrode voltage clamp, Xenopus laevis oocytes", "setting": "[1]", "value": "Oocytes expressing ProT2 or ProT3 can import ^3H-proline into the cells from external buffer"}, {"measurement": "3H-proline uptake and two-electrode voltage clamp, Xenopus laevis oocytes", "setting": "[2]", "value": "Oocytes expressing ProT2 or ProT3 can import ^3H-proline into the cells from external buffer"}]}]}
